Patent US6827926B2, “Metallotetrapyrrolic photosensitizing agents for use in photodynamic therapy” (Miravant Pharmaceuticals, Inc., priority 2001, dated 2004)
Where two headings read alike, the source gives them in different places.

What was measured:
[1] = tested on: V79 (Chinese Hamster Lung Fibroblasts) cells; assay: In vitro cytotoxicity assay (light EC50, Alamar blue); format: cell-based; settings: Table 3 porphyrins, 24 h drug incubation, 532 nm, 1.25 J/cm^2, read-out: In Vitro EC50 Light
Method in brief: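 V79 cells in phenol-free 5% FBS/DMEM exposed 24 h to photosensitizer at final 0.01–5.0 μM, six replicates, then washed and light-treated, with a dark plate as control. Survival by Alamar blue after 24 h dark incubation, read at 570/600 nm.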

[2] = tested on: normal skin of CD Hairless male rats; format: in vivo, rat
Method in brief: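 Liposomal egg yolk phospholipid photosensitizer given as single i.v. tail-vein bolus at 1, 1.5 and 2 μmol/kg; skin spots irradiated with 532 nm laser (150 mW/cm^2, 150J, 1 cm) at 1, 6, 24, 48, 96 hrs post injection. Value is time of last observed skin response spot.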

[3] = Cardiovascular safety in pig coronary artery models (ECG, HR, BP); format: in vivo; settings: doses exceeding 20 mg/Kg
Procedure: Photosensitizers were administered systemically (at doses typically 2-3.5 mg/kg body weight, in a soybean phospholipid formulation) as a slow bolus injection in the ear vein. Drug treatments were followed (1-4 hr later) by endovascular light treatment (50-250 J/cm^2 fluence and 100-300 mW/cm^2 irradiance) in uninjured coronary (50-250 J/cm^2 fluence and 100-300 mW/cm^2 irradiance) and iliac (50-350 J/cm^2 fluence and 100-450 mW/cm^2 irradiance) arteries. In another set of experiments, animals also received balloon injuries in the coronary arteries at the time of PDT treatment. Angioplasty injuries in 2 coronary arteries were performed. Vital signs and cardiovascular parameters such as ECG, HR, BP, were monitored together with arterio-angiograms for measurements of vessel patency.

Compound	EC50 [1] [nM]	Normal skin Response (1 μmol) ([2]; rat, in vivo) [h]	cardiotoxicity in pig coronary artery models [3]	Normal skin Response (1 μmol) ([2]; Table 3, time of last skin spot observed post injection, 1 μmol, 532 nm laser) [h]	normal skin responses, time post drug injection ([2]; rats, drug dose 1 μmol/Kg) [h]
COC(=O)CCC1=C(C)c2cc3[n-]c(cc4nc(cc5[n-]c(cc1n2)c(CCC(=O)OC)c5C)C=C4C)cc3C.[Cl-].[Ga+3] [Example 4, Gallium Chloride Deuteroporphyrin Dimethyl Ester]	400	6	no cardiotoxicity was observed		
CCC1=C(C)C2=[N+]3C1=Cc1c(C)c(CC)c4[n]1[Ga-2]31([Cl])[n]3c(c(C)c(CCC(=O)NC)c3=CC3=[N+]1C(=C4)C(C)=C3CCC(=O)NC)=C2 [Example 121, Gallium Chloride Mesoporphyrin N-methyl Amide]	400	6	no cardiotoxicity was observed		
Gallium Chloride Mesoporphyrin Dimethyl Ester [Example 1]	200		no cardiotoxicity was observed	48	48
